For nine molecules, MIC, IC50 and Activity results are on record in ChEMBL document CHEMBL3259693, “Multitarget drug discovery for tuberculosis and other infectious diseases” (J Med Chem, 2014).

Broadly, the IC50 is the midpoint of a concentration-inhibition curve.

In test [1] the test system is Mycobacterium tuberculosis. The test is described as follows: microbe, parasite or virus in culture. Type of test: functional. As to conditions: ATCC 27294.
Description: Antimicrobial activity against Mycobacterium tuberculosis ATCC 27294
For test [2], the system named is Mycolicibacterium smegmatis. The test is described as follows: microbe, parasite or virus in culture. Type of test: functional. As to conditions: ATCC 700084.
Description: Antimicrobial activity against Mycobacterium smegmatis ATCC 700084
A further test deals with Bacillus subtilis. Description: Antimicrobial activity against Bacillus subtilis subsp. subtilis ATCC 6051 after 12 to 16 hrs by microbroth dilution method. The format is functional, organism-based. Background: Dilution methods test growth across graded concentrations, often in twofold steps.
The test system of another test is Staphylococcus aureus. The test is described as follows: Antimicrobial activity against methicillin-resistant Staphylococcus aureus USA300. The format is functional.
In test [3] the test system is Escherichia coli. Description: microbe, parasite or virus in culture. Type of test: functional, organism-based. As to conditions: ATCC 29425, 3 h.
Description: Antimicrobial activity against Escherichia coli ATCC 29425 after 3 hrs by microbroth dilution method
A further test relates to Saccharomyces cerevisiae. The test is described as follows: Antimicrobial activity against Saccharomyces cerevisiae ATCC 208352 after 48 hrs by microbroth dilution method. The format is functional, organism-based. As to conditions: ATCC 208352, 48 h.
In a further test the test system is Candida albicans. Description: Antimicrobial activity against Candida albicans CAI-4. The format is functional, organism-based.
The subject of the next test is MCF7. The test is described as follows: Cytotoxicity against human MCF7 cells assessed as growth inhibition by MTT assay. Type of test: cell-based.
Test [4] relates to Mycolicibacterium smegmatis. Description: Inhibition of respiration in Mycobacterium smegmatis after 5 mins by methylene blue reduction assay in presence of NADH. Type of test: functional, organism-based.
For test [5], the system named is Mycolicibacterium smegmatis. The test is described as follows: Disruption of membrane potential in Mycobacterium smegmatis by DisC3(5) probe-based fluorescence spectrophotometry. The format is functional, organism-based.
Test [6] is described as follows: Inhibition of Escherichia coli N-terminal strep-tagged MenA expressed in Escherichia coli C43 (DE3) assessed as demethylmenaquinone-3 formation after 30 mins by HPLC analysis.
For test [7], the system named is Escherichia coli. Description: Induction of collapse in deltapH in Escherichia coli inverted membrane vesicles by 31P NMR spectroscopy. The format is functional, organism-based.
The next test relates to Plasmodium falciparum. Description: Antimicrobial activity against Plasmodium falciparum 3D7 by intraerythrocytic assay. The format is functional, organism-based.
Test [8] deals with Mycolicibacterium smegmatis. The test is described as follows: Induction of collapse in deltapH in Mycobacterium smegmatis inverted membrane vesicles at 30 to 150 uM by 31P NMR spectroscopy. The format is functional.

≈ marks a conversion by molar mass, not a printed value. Calls of active or inactive are those of the source. The rule behind the calls is not given here.

With `CC(C)=CCC/C(C)=C/CNCCOc1cccc2ccccc12`, the figures for the MIC (in test [1]; in test [2]; with Staphylococcus aureus) were 19 µM (≈ 6.15 µg/mL), 37 µM (≈ 12 µg/mL) and 25 µM (≈ 8.09 µg/mL), respectively. The IC50 with Bacillus subtilis amounted to 7.4 µM; in the test with Escherichia coli [3], 46 µM; with Saccharomyces cerevisiae, 11 µM; in the test with Candida albicans, 37 µM; in the test with MCF7, 22 µM; in test [4], 140 µM. Further, the results for the IC50 (in [5]; in test [6]; with Escherichia coli [7]) were 130 µM, 3.3 µM and 7.1 µM, respectively.

As to `CC(C)=CCC/C(C)=C/CNCCOc1ccccc1`, the results for the MIC (in test [1]; in test [2]; against Staphylococcus aureus) were 23 µM (≈ 6.29 µg/mL), 44 µM (≈ 12 µg/mL) and 117 µM (≈ 32 µg/mL), respectively. The IC50 in the test with Bacillus subtilis turned out to be 62 µM; with Escherichia coli [3], 220 µM; in the test on Saccharomyces cerevisiae it was 11 µM; in the test on Candida albicans, 74 µM; with Plasmodium falciparum, 51 µM; in the test with MCF7, 23 µM. For the same molecule, the results for the IC50 in [4] and in test [6] were 2500 µM and 4.6 µM, respectively.

Consider `CC(C)[C@@H]1NC(=O)[C@H](C)OC(=O)[C@@H](C(C)C)NC(=O)[C@@H](C(C)C)OC(=O)[C@H](C(C)C)NC(=O)[C@H](C)OC(=O)[C@@H](C(C)C)NC(=O)[C@@H](C(C)C)OC(=O)[C@H](C(C)C)NC(=O)[C@H](C)OC(=O)[C@@H](C(C)C)NC(=O)[C@@H](C(C)C)OC1=O`, for which the outcome in test [8] was inactive.

As to `CC(C)=CCC/C(C)=C/C[N+](C)(C)CCOC1C2CC3CC(C2)CC1C3` (stereo not drawn), the values for the MIC (in test [1]; in [2]; in the test with Staphylococcus aureus) were 1.6 µM, 24 µM and 16 µM, respectively. Also, the IC50 was found to be 8.6 µM in the test with Bacillus subtilis; 76 µM in the test on Escherichia coli [3]; 31 µM in the test on Saccharomyces cerevisiae; 37 µM in the test with Candida albicans; 0.16 µM in the test with Plasmodium falciparum; 6.5 µM with MCF7. The IC50 in [4] came out at 0.5 µM; in test [5] it was 51 µM; in test [6], 1 µM; with Escherichia coli [7] it was 18 µM.

With `CC(C)=CCC/C(C)=C/COCC(=O)NC1C2CC3CC(C2)CC1C3` (stereo not drawn), the MIC in test [1] was 34 µM (≈ 11.7 µg/mL); in test [2], 72 µM (≈ 24.9 µg/mL). The IC50 was found to be 49 µM in the test on Bacillus subtilis; 11 µM in the test on Plasmodium falciparum; 27 µM in the test with MCF7; 280 µM in test [4]; 150 µM in test [5]; 16 µM in test [6]. This molecule came in with an IC50 with Escherichia coli [7] of 7.4 µM.

In test [2], `CC(C)=CCC/C(C)=C/COCCOC1C2CC3CC(C2)CC1C3` (stereo not drawn) registered an MIC of 150 µM (≈ 49.9 µg/mL). For the same molecule, the IC50 in the test with Plasmodium falciparum was found to be 24 µM; in the test on MCF7, 220 µM; in test [4], 600 µM; in test [5] it was 150 µM; in [6], 4.2 µM; in the test on Escherichia coli [7], 15 µM.

`CC(C)=CCC/C(C)=C/CNC(=O)COC1C2CC3CC(C2)CC1C3` (stereo not drawn): the MIC in test [1] came out at 2.2 µM (≈ 0.76 µg/mL); in test [2] it was 18 µM (≈ 6.22 µg/mL). Also, the IC50 with Plasmodium falciparum was found to be 18 µM; with MCF7, 35 µM; in test [4], 330 µM; in test [5] it was 150 µM; in test [6] it was 5.8 µM; in the test on Escherichia coli [7] it was 12 µM.

For the molecule `CC(C)=CCC/C(C)=C/CNCCOC(C)(C)C`, the results for the MIC in test [1] and in test [2] were 24 µM (≈ 6.08 µg/mL) and 198 µM (≈ 50.2 µg/mL), respectively. Besides, the 50% inhibitory concentration (IC50) in the test on Saccharomyces cerevisiae was 174 µM; in the test on Plasmodium falciparum, 13 µM; with MCF7, 178 µM; in test [4], 9500 µM; in test [5] it was 150 µM; in test [6], 4.6 µM. This molecule also returned a concentration for half-maximal inhibition (IC50) in the test with Escherichia coli [7] of 4.7 µM.

As to `CC(C)=CCC/C(C)=C/CNCCCOC1C2CC3CC(C2)CC1C3` (stereo not drawn), the MIC is 4.6 µM (≈ 1.59 µg/mL) in test [1], 18 µM (≈ 6.22 µg/mL) in test [2] and 23 µM (≈ 7.95 µg/mL) with Staphylococcus aureus. Besides, the IC50 with Bacillus subtilis was 8.7 µM; with Escherichia coli [3], 6.7 µM; with Saccharomyces cerevisiae, 7.8 µM; in the test with Candida albicans, 19 µM; in the test on Plasmodium falciparum, 2.4 µM; with MCF7 it was 9.8 µM. Also, the IC50 in test [4] stood at 4.8 µM; in [5], 50 µM; in test [6] it was 1.9 µM; in the test with Escherichia coli [7] it was 1.1 µM.
